# In patent US8394391B2, “Drug delivery vehicle that mimics viral properties” (University of Utah Research Foundation, priority 2007, dated 2013):
# Key:
# Format in all cases: cell-based, human
# [1] = test system: A2780 cells; assay: MTT cell cytotoxicity, A2780 cells; conditions: drug-sensitive A2780; DOX equivalent 5 μg/ml; 48 hours; pH 7.4
# Procedure: (§1) A2780 and A2780/AD cells suspended in RPMI 1640 medium (200 μl) were seeded in a 96-well plate and cultured for 24 hours before testing. Free DOX (5 μg/ml) or equivalent DOX-loaded samples (virogels and control NPs) were added to the medium-removed 96-well plate for cell cytotoxicity tests. The pH of the culture medium was adjusted to pH 7.4 or pH 6.8 for 48 hours during the test, as described in A. Patchornik et al., supra. Cell cytotoxicity was measured using the tetrazolium salt MTT assay. E. S. Lee, K. Na & Y. H. Bae, 5 Nano Lett. 325-329 (2005); E. S. Lee, K. Na & Y. H. Bae, 103 J. Control. Release 405-418 (2005).
# [2] = test system: A2780/AD cells; assay: Migration to neighboring cells in co-culture (confocal slice images); conditions: for secondary infection of co-cultured untreated cells: 20 hours co-culture
# Procedure: Experiments were conducted to verify migration of virogels to neighboring cells. Cells grown on glass slide fragments (“plates”) (1×1 cm) were pre-treated with free DOX (10 μg/ml) or equivalent DOX-loaded virogels or NPs (controls), E. S. Lee, K. Na & Y. H. Bae, Polymeric micelle for tumor pH and folate-mediated targeting, 91 J. Control. Release 103-113 (2003)) for 4 hours. These pretreated cells (A cells) were washed with PBS (pH 7.4) and co-cultured with fresh cells (B-0 cells) on new glass slide fragments for 20 hours in fresh culture medium. Co-culturing was carried out by placing a plate containing A cells and a plate containing B-0 cells next to each other, but separated by 1 mm, in a culture dish such that the A cells and B-0 cells continuously shared fresh culture medium. The A cells served as a potential source for migration of virogels, and the B-0 cells were a potential site for secondary virogel infection.
# After the B-0 cells were co-cultured with A cells for 20 hours, such B-0 cells were redesignated as B-1 cells. B-1 cells were then withdrawn from the culture dish and were co-cultured with fresh cells on new glass slide fragments for 20 hours in fresh culture medium. These fresh cells that had been co-cultured with B-1 cells were termed B-2 cells. These B-2 cells were then also withdrawn and co-cultured with fresh cells on new glass slide fragments for 20 hours in fresh culture medium. These fresh cells that had been co-cultured with B-2 cells were termed B-3 cells. Confocal slice images were obtained, as described above, for observing fluorescent DOX in cells. To evaluate the effect of DOX on virogel migration, blank virogels (50 μg/ml) were tested using the same procedure. FITC-labeling (Example 2) was used to visualize the blank virogels.
# [3] = test system: A2780/AD cells; assay: MTT cell cytotoxicity, drug-resistant A2780/AD cells; conditions: DOX equivalent 5 μg/ml, 48 hours, pH 7.4
# Procedure: as §1
structure (smiles),measurement,setting,value
"COc1cccc2c1C(=O)c1c(O)c3c(c(O)c1C2=O)C[C@@](O)(C(=O)CO)C[C@@H]3O[C@H]1C[C@H](N)[C@H](O)[C@H](C)O1 [free DOX, doxorubicin]",viability,[1],30%
same,distribution of fluorescence within primary treated cells (A cells),"[2]; 4 hours pre-treatment, DOX 10 μg/ml equivalent (blank virogels 50 μg/ml, FITC)",only limited fractions of DOX diffusing into cells
same,migration from infected A2780/AD cells to untreated cells,"[2]; FIG. 7 legend, overall",no such migration
same,secondary infection of co-cultured untreated cells,"[2]; first cycle, B-1 cells",No further cell effects
same,secondary infection of co-cultured untreated cells,"[2]; second cycle, B-2 cells",No further cell effects
same,secondary infection of co-cultured untreated cells,"[2]; third cycle, B-3 cells",No further cell effects
same,viability,[3],80%
